Patent US9790169B2, “IDO inhibitors” (BRISTOL-MYERS SQUIBB COMPANY, priority 2015, dated 2017)

Target: human IDO1 (Homo sapiens, UniProt P14902)
Assay: Assessment of human IDO-1 inhibitory activity in Hela cells (Interferon-gamma stimulated HeLa cells, Ehrlich reagent, absorbance 490 nm)
Format: cell-based
Design: endogenous in cells; host or cells: HeLa cells stimulated with interferon-gamma
Settings: Hela Human IDO-1 cellular assay
Procedure, shortened: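 IDO activity induced by 18 h IFN-γ (human 10 ng/ml or murine 5 ng/ml, final) after 1 h compound pre-treatment of HeLa cells at 37 °C. Supernatant kynurenine detected via Ehrlich reagent absorbance at 490 nm following 3% TCA at 50 °C; IC50 set against no-IFN-γ and untreated-stimulated controls.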

Sequence of human IDO1 (P14902 whole entry): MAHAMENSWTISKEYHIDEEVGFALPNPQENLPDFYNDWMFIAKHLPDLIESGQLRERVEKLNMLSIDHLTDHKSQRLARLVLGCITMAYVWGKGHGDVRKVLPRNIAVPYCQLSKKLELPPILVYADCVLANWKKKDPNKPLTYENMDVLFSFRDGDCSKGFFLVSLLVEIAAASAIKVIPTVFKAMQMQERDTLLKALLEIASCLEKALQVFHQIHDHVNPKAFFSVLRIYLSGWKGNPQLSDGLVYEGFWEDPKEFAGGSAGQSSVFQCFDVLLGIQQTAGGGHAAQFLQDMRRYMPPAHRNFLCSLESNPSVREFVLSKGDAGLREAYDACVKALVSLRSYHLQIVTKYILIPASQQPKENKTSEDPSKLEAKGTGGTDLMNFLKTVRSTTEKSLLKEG

Row | IC50 | Structure (SMILES)
1 | < 5 nM | CCN(c1c(F)cc(C(COC)CC(=O)O)cc1Nc1ccc(C#N)cc1)C1CCOCC1 (single isomer, unassigned) [Example 916, 3-(3-((4-Cyanophenyl)amino)-4-(ethyl(tetrahydro-2H-pyran-4-yl)amino)-5-fluorophenyl)-4-methoxybutanoic acid]
2 | > 50 nM | COCC(CC(=O)O)c1ccc(N2CCOC(C)(C)C2)c(NC(=O)Nc2ccc(Cl)cc2F)c1 (single isomer, unassigned) [Example 1318 E1, 3-(3-(3-(4-Chloro-2-fluorophenyl)ureido)-4-(2,2-dimethylmorpholino)phenyl)-4-methoxybutanoic acid]
3 | < 5 nM | CCC(CC(=O)O)c1ccc(N(CC(F)F)C2CCOCC2)c(Nc2ccc(Cl)cc2)c1 (single isomer, unassigned) [Example 318 Enantiomer 1, 3-(3-((4-Chlorophenyl)amino)-4-((2,2-difluoroethyl)(tetrahydro-2H-pyran-4-yl)amino)phenyl)pentanoic acid]
4 | > 50 nM | COCCN(c1ccc(C(C)(C)CC(=O)O)cc1NC(=O)Nc1ccc(C#N)cc1)C1CCOCC1 [Example 19, 3-(3-(3-(4-cyanophenyl)ureido)-4-((2-methoxyethyl)(tetrahydro-2H-pyran-4-yl)amino)phenyl)-3-methylbutanoic acid]
5 | > 50 nM | CCOc1ncc(Nc2cc([C@@H](COC)CC(=O)O)ccc2N2CCOCC2CC)cn1 (single isomer, unassigned) [Example 1285]
6 | < 50 nM | CCOc1ncc(Nc2cc(C(CC)CC(=O)O)ccc2N(C)C2CCOCC2)cn1 (single isomer, unassigned) [Example 869, 3-(3-((2-ethoxy-pyrimidin-5-yl)amino)-4-(methyl (tetrahydro-2H-pyran-4-yl)amino)phenyl) pentanoic acid]
7 | < 5 nM | CCN(c1ccc(C(CC(=O)O)C2CC2)cc1Nc1ccc(F)cc1)C1CCS(=O)(=O)CC1 (single isomer, unassigned) [Example 343, 3-cyclopropyl-3-(4-((1,1-dioxidotetrahydro-2H-thiopyran-4-yl)(ethyl)amino)-3-((4-fluorophenyl)amino)phenyl) propanoic acid]
8 | > 50 nM | CCC1COCCN1c1ccc([C@H](COC)CC(=O)O)cc1Nc1ccc(C#N)c(F)c1 (single isomer, unassigned) [Example 1288]
9 | < 50 nM | COCC(CC(=O)O)c1ccc(N2CCC(c3ccccc3)CC2)c(NC(=O)Nc2ccc(Cl)cc2F)c1 (single isomer, unassigned) [Example 1357 E2, 3-(3-(3-(4-Chloro-2-fluorophenyl)ureido)-4-(4-phenylpiperidin-1-yl)phenyl)-4-methoxybutanoic acid]
10 | < 5 nM | CCOc1ncc(Nc2cc(C(COC)CC(=O)O)ccc2N2CCC(c3ccccc3)CC2)cn1 (single isomer, unassigned) [Example 1354, 3-(3-((2-ethoxypyrimidin-5-yl)amino)-4-(4-phenylpiperidin-1-yl)phenyl)-4-methoxybutanoic acid]
11 | < 50 nM | CCN(c1ccc(C(CC)(CC)CC(=O)O)cc1Nc1cnc(OC)nc1)C1CCOCC1 [Example 28, 3-ethyl-3-(4-(ethyl(tetrahydro-2H-pyran-4-yl)amino)-3-((2-methoxypyrimidin-5-yl)amino)phenyl)pentanoic acid]
12 | < 5 nM | CCN(c1cc(F)c(C(COC)CC(=O)O)cc1Nc1ccc(C#N)c(F)c1)C1CCOCC1 (single isomer, unassigned) [Example 846, 3-(5-((4-cyano-3-fluorophenyl)amino)-4-(ethyl (tetrahydro-2H-pyran-4-yl)amino)-2-fluorophenyl)-4-methoxybutanoic acid]
13 | < 50 nM | CCN(c1ccc(C(C)(C)CC(=O)O)cc1Nc1ccc(C#N)cc1)C1CCS(=O)(=O)CC1 [Example 178, 3-(3-((4-cyanophenyl)amino)-4-((1,1-dioxidotetrahydro-2H-thiopyran-4-yl)(ethyl)amino)phenyl)-3-melhylbutanoic acid]
14 | > 50 nM | COCC(CC(=O)O)c1ccc(N2C[C@@H]3C[C@H]2CN3C(=O)OC(C)(C)C)c(Nc2ccc(C#N)cc2)c1 (single isomer, unassigned) [Example 451 Diastereomer 2]
15 | > 50 nM | CCN(c1ccc(C2(CC(=O)O)CCOCC2)cc1NC(=O)Nc1ccc(C)cc1)C1CCOCC1 [Example 157, 2-(4-(4-(Ethyl(tetrahydro-2H-pyran-4-yl)amino)-3-(3-(p-tolyl)ureido)phenyl)tetrahydro-2H-pyran-4-yl)acetic acid]
16 | < 50 nM | CCC(CC(=O)O)c1ccc(N2CCOCC2)c(Nc2ccc(C#N)cc2)c1 (single isomer, unassigned) [Example 6 Enantiomer 2, 3-(3-((4-Cyanophenyl)amino)-4-morpholinophenyl)pentanoic acid]
17 | > 50 nM | CCOc1ncc(Nc2cc([C@@H](CC)CC(C)(C)O)ccc2N(CC)C2CCOCC2)cn1 (single isomer, unassigned) [Example 1345]
18 | < 50 nM | CCC(CC(=O)O)c1ccc(N2CC(O)(c3ccc(F)cc3)C2)c(Nc2ccc(C#N)cc2)c1 (single isomer, unassigned) [Example 1254, 3-(3-((4-cyanophenyl)amino)-4-(3-(4-fluorophenyl)-3-hydroxyazetidin-1-yl)phenyl)pentanoic acid]
19 | < 5 nM | CCCN(c1ccc([C@@H](CC)CC(=O)O)cc1Nc1ccc(OC)nc1)C1CCOCC1 (single isomer, unassigned) [Example 542]

Row | IC50 | Structure (SMILES)
20 | > 50 nM | CCC1COCCN1c1ccc([C@@H](COC)CC(=O)O)cc1Nc1cnc(OC)nc1 (single isomer, unassigned) [Example 1284]
21 | < 5 nM | CCCN(c1ccc(C(COC)CC(=O)O)cc1Nc1ccc(Cl)cc1)C1CCS(=O)(=O)CC1 (single isomer, unassigned) [Example 185, 3-(3-((4-chlorophenyl)amino)-4-((1,1-dioxidotetrahydro-2H-thiopyran-4-yl)(propyl)amino)phenyl)-4-methoxybutanoic acid]
22 | < 50 nM | CC[C@H](CC(=O)O)c1ccc(N(CC)C2CCOCC2)c(Nc2ccc(S(=O)(=O)CC)cc2)c1 (single isomer, unassigned) [Example 525]
23 | < 5 nM | CCCN(c1ccc([C@H](CC)CC(=O)O)cc1Nc1ccc(Cl)cc1)C1CCOCC1 (single isomer, unassigned) [Example 552]
24 | < 50 nM | CCOc1ncc(Nc2cc([C@H](CC(=O)O)C(F)(F)F)ccc2N(CC)C2CCOCC2)cn1 [Example 598, (S)-3-(3-((2-Ethoxypyrimidin-5-yl)amino)-4-(ethyl(tetrahydro-2H-pyran-4-yl)amino)phenyl)-4,4,4-trifluorobutanoic acid]
25 | < 5 nM | CCOc1ncc(Nc2cc(C(CC)CC(=O)O)cnc2N(CC(C)C)CC(C)C)cn1 (racemic) [Example 1376, (+/−)-3-(6-(Diisobutylamino)-5-((2-ethoxypyrimidin-5-yl)amino)pyridin-3-yl)pentanoic acid]
26 | > 50 nM | CCN(c1ccc([C@@H](COC)CC(=O)O)cc1Nc1ccccc1C#N)C1CCOCC1 (single isomer, unassigned) [Example 369]
27 | > 50 nM | Cc1ccc(NC(=O)Nc2cc(C(CC(=O)O)C3CC3)ccc2N2C[C@@H](C)O[C@@H](C)C2)cc1 (single isomer, unassigned) [Example 251 Enantiomer 1]
28 | > 50 nM | CCN(c1ccc([C@@H](COC)CC(=O)O)cc1Nc1ccc(C(N)=O)cc1)C1CCOCC1 (single isomer, unassigned) [Example 385]
29 | > 50 nM | COCC(CC(=O)O)c1ccc(N2C[C@@H](C)O[C@@H](C)C2)c(Nc2ccc(Cl)cc2)c1 (single isomer, unassigned) [Example 603]
30 | < 5 nM | CCN(c1ccc(C(COC)CC(=O)O)cc1Nc1ccc(Cl)cc1)C1CCS(=O)(=O)CC1 (single isomer, unassigned) [Example 170, 3-(3-((4-chlorophenyl)amino)-4-((1,1-dioxidotetrahydro-2H-thiopyran-4-yl)(ethyl)amino)phenyl)-4-methoxybutanoic acid]
31 | < 50 nM | CCC1COCCN1c1ccc([C@H](COC)CC(=O)O)cc1Nc1ccc(C#N)c(F)c1 (single isomer, unassigned) [Example 1304]
32 | < 5 nM | CCC(CC(=O)O)c1ccc(N2C[C@@H]3C[C@H]2CN3C(=O)OC(C)(C)C)c(Nc2ccc(C#N)cc2)c1 (single isomer, unassigned) [Example 443 Diastereomer 1]
33 | > 50 nM | CCC1COCCN1c1ccc([C@@H](COC)CC(=O)O)cc1Nc1ccc(F)cn1 (single isomer, unassigned) [Example 1302]
34 | < 50 nM | CCCN(c1ccc(C(C)(C)CC(=O)O)cc1NC(=O)Nc1ccc(C)cc1)C1CCOCC1 [Example 25, 3-Methyl-3-(4-(propyl(tetrahydro-2H-pyran-4-yl)amino)-3-(3-(p-tolyl)ureido)phenyl)butanoic acid]
35 | < 50 nM | COCC(CC(=O)O)c1ccc(N2CCOC[C@@H]2C(C)C)c(Nc2ccc(Cl)cc2)c1 (single isomer, unassigned) [Example 930]
36 | < 50 nM | CCC(CC(=O)O)c1ccc(N2CCC(C)CC2)c(Nc2ccc(C#N)cc2)c1 (single isomer, unassigned) [Example 41 Enantiomer 1, 3-(3-((4-Cyanophenyl)amino)-4-(4-methylpiperidin-1-yl)phenyl)pentanoic acid]
37 | > 50 nM | Cc1ccc(NC(=O)Nc2cc(C(C)CC(=O)O)ccc2N2C[C@@H](C)O[C@@H](C)C2)cc1 (single isomer, unassigned) [Example 751]

Row | Structure (SMILES) | IC50
38 | CCN(c1ccc([C@@H](COC)CC(=O)O)cc1Nc1ccc(C#N)c(Cl)c1)C1CCOCC1 (single isomer, unassigned) [Example 381] | < 50 nM
39 | CCOc1ncc(Nc2cc([C@@H](CC)CC(=O)O)ccc2N2C3CCC2CC(c2ccc(F)cc2)C3)cn1 (stereo partly drawn) [Example 1360, (S)-3-(3-((2-Ethoxypyrimidin-5-yl)amino)-4-(3-(4-fluorophenyl)-8-azabicyclo[3.2.1]octan-8-yl)phenyl)pentanoic acid] | < 5 nM
